In patent publication US12064409B2, “Action of L-citrulline to prevent or treat endothelial dysfunction” (Asklepion Pharmaceuticals, LLC, priority 2021, dated 2024):
Read-outs that look alike come from different tables or passages of the source.

Legend:
[1] = Phase IB trial of intravenous L-citrulline versus placebo in children undergoing cardiopulmonary bypass (IND #66,261); assay type: in vivo
Text: FIG. 1. Duration of mechanical ventilation therapy following cardiopulmonary bypass in citrulline treated and control patients.
FIG. 2. Duration of inotrope therapy following cardiopulmonary bypass in citrulline treated and control patients.
FIG. 3. Maximum of mechanical ventilation or inotrope therapy (surrogate for duration of ICU stay) following cardiopulmonary bypass in citrulline treated and control patients.
A recent study^39 carried out under IND #66,261 examined whether maintenance of plasma citrulline levels at steady state levels at or above 100 micromolar would prevent the occurrence of pulmonary complications of cardiopulmonary bypass in children undergoing congenital heart repair surgery. For pulmonary function, the endpoint was the post-operative duration of mechanical ventilation (see FIG. 1). Alternative endpoints included the duration of post-operative inotrope therapy (see FIG. 2) and the length of time in the intensive care unit (see FIG. 3).

COVID-19 (SARS-CoV2) = test: Example I, intravenous citrulline treatment of hospitalized Covid-19 patients; assay type: in vivo; details: intravenous bolus 20 mg/kg then 9 mg/kg per hour infusion up to 10 days
Description: Subjects hospitalized and requiring oxygen for an acute hypoxemic respiratory illness due to COVID-19 (SARS-CoV2) will be treated. In addition, subjects will receive standard supportive care for acute hypoxemic respiratory illness and failure. The assessment of efficacy will include collection of plasma for analysis of citrulline and arginine levels at 2 hours, 12 hours, and the alternating morning of study days. Optionally, samples may also be analyzed for D-dimer and angiopoietin-2 levels.
The assessment of efficacy will include collection of plasma for analysis of citrulline and arginine levels at 2 hours, 12 hours, and the alternating morning of hospitalization days. Additional efficacy measures will include clinical outcomes, including progression of acute lung injury and, lengths of hospital and ICU stay. The assessment of safety will include collection of hemodynamic measurements at least every 4 hours on a hospital unit.
Patients will receive an initial intravenous bolus of 20 mg/kg (to a maximum of 1500 mg) L-citrulline over 10 minutes. The infusion solution will be prepared as a 5% isotonic solution (50 mg/mL) in 5% dextrose water. […]
Participant survival will be assessed at hospital discharge. […] Hospital length of stay will be calculated as the number of days from admission to hospital discharge.

[2] = in vivo, iv
[3] = cited from earlier work
[4] = in vivo; cited from earlier work
[5] = human, in vivo; cited from earlier work
[6] = plasma citrulline 12 h postoperatively <37 μmol/L

NC(=O)NCCC[C@H](N)C(=O)O [citrulline, L-citrulline]
Duration of mechanical ventilation therapy following cardiopulmonary bypass ([1]; citrulline treated vs control patients, Wilcoxon rank-sum p=0.0089, plasma citrulline at or above 100 micromolar): treated differs from control
Duration of inotrope therapy following cardiopulmonary bypass ([1]; citrulline treated vs control patients, Wilcoxon rank-sum p=0.0351): treated differs from control
Maximum of mechanical ventilation or inotrope therapy (surrogate for duration of ICU stay) following cardiopulmonary bypass ([1]; citrulline treated vs control patients, Wilcoxon rank-sum p=0.0479): treated differs from control
Complications of cardiopulmonary bypass ([1]; plasma citrulline maintained at or above 100 micromolar, by time on mechanical ventilation and duration of inotrope therapy): prevented the complications of bypass
Length of time to an intubation event from the start of study infusion (COVID-19 (SARS-CoV2)): extend the length of time to an intubation event
Total length of all mechanical ventilation, including non-invasive modalities (COVID-19 (SARS-CoV2)): reduce the total length of all mechanical ventilation
Drug-associated adverse events [2]: no drug-associated adverse events
Pulmonary hypertension absent (number of patients) [3, 6]: 18
Pulmonary hypertension present (number of patients) [3, 6]: 9
Pulmonary hypertension present (number of patients) ([3]; plasma citrulline 12 h postoperatively >37 μmol/L, P value .036): *0
Pulmonary hypertension absent (number of patients) ([3]; plasma citrulline 12 h postoperatively >37 μmol/L): 12
half-life of citrulline in plasma [4]: about 1 hour
Adverse effects [5]: no observed adverse effects
